Reference: paper PMC7466635, “Identification of Quinazolinone Analogs Targeting CDK5 Kinase Activity and Glioblastoma Cell Proliferation” (Frontiers in Chemistry, 2020)
Where two headings read alike, the source gives them in different places.

Tests used:
[1] = target: T1, CDK5 (Homo sapiens, UniProt Q00535); assay: CDKACT5-Cy5 fluorescent kinase activity biosensor with U87 cell extract; residual activity at […], IC50 not fittable; format: cell-based; details: U-87 MG
[2] = target: T1, CDK5; assay: biochemical
[3] = target: T1, CDK5; assay: biochemical; remark: listed apart in the source

T1 sequence (Q00535 whole entry): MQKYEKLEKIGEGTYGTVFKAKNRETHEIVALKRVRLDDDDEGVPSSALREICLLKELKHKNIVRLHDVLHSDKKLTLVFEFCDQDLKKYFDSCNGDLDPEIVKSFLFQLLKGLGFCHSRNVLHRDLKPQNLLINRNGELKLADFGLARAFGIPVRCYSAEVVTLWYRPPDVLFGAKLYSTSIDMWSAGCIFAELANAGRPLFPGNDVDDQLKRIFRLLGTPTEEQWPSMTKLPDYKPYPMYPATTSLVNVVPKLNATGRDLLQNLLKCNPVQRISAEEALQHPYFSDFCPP
T1 sequence (Q15078 2-307 partner): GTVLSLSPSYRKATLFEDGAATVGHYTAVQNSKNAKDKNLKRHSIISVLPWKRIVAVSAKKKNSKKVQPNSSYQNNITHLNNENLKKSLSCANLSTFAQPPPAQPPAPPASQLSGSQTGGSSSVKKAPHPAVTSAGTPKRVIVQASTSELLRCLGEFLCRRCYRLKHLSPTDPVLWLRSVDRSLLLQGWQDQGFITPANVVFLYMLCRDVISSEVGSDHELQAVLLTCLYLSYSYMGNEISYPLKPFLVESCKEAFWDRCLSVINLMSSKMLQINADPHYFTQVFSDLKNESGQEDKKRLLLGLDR

Row | SMILES | IC50 [2] [µM] | IC50 [3] [µM] | also measured
1 | Nc1ccc2[nH]c(SCc3nc4ccccc4c(=O)n3-c3cccc(C(F)(F)F)c3)nc2c1 [5a, JMV5798] | – | – | activity at 100 µM [1]: 40.2 ± 2.4%
2 | Nc1ccc2[nH]c(SCc3nc4ccccc4c(=O)n3-c3ccccc3)nc2c1 [5d, JMV5800] | 8.29 ± 3.56 | – | –
3 | Nc1ccc2[nH]c(SCc3nc4ccccc4c(=O)n3-c3ccccc3Br)nc2c1 [5j, JMV5886] | – | 24.4 ± 32.5 | –
4 | Nc1ccc2[nH]c(SCc3nc4ccccc4c(=O)n3-c3ccc(Br)cc3)nc2c1 [5l, JMV5889] | – | 28.7 ± 51.2 | –
5 | Nc1ccc2[nH]c(SCc3nc4ccccc4c(=O)n3-c3cccc(Cl)c3)nc2c1 [5m, JMV5884] | 7.6 ± 3.8 | – | –
6 | Cc1ccc2c(=O)n(-c3ccccc3)c(CSc3nc4cc(N)ccc4[nH]3)nc2c1 [5p, JMV5735] | – | 9.35 ± 11.1 | –
